Data on seven compounds can be found in patent US12473324B2, “Triazine-based amphiphilic compound and use thereof” (INDUSTRY-UNIVERSITY COOPERATION FOUNDATION HANYANG …, priority 2019, dated 2025).

The nature of series [1]: Critical micelle concentration (CMC) by fluorescent dye diphenylhexatriene (DPH). Particulars: DPH fluorescence. Format: physicochemical. The protocol: A method of measuring the CMC is not particularly limited, but a method widely known in the art may be used, and for example, the CMC may be measured by a fluorescent staining method using diphenylhexatriene (DPH).
(§1) Specifically, the critical micelle concentrations (CMCs) were measured using a fluorescent dye, diphenylhexatriene (DPH), and the hydrodynamic radii (Rh) of micelles formed by each preparation (1.0 wt %) were determined by a dynamic light scattering (DLS) experiment. The measured results are shown in Table 1 compared to DDM which is an existing amphiphilic molecule (detergent).

Series [2] can be described thus: Hydrodynamic radius (Rh) of micelles by dynamic light scattering (DLS). The following applies: 1.0 wt % detergent. It counts as physicochemical. The protocol:
A method of measuring the radius of micelle is not particularly limited, but a method widely known in the art may be used, and for example, the radius of micelle may be measured using a dynamic light scattering (DLS) experiment.
as §1

Series [3] in a line: Solubility of detergent (Table 1). Format: physicochemical.
Series [4] deals with leucine transporter (LeuT). Description: LeuT structural stability: [3H]-Leu binding by scintillation proximity assay (SPA). Particulars: CMC+0.04 wt % or CMC+0.2 wt %, room temperature, 13-day incubation, [3H]-Leu SPA. It counts as biochemical, Aquifex aeolicus. The protocol: Experiments were performed to measure the structural stability of the LeuT protein by TSMs, TTGs and TEMs. Each amphiphilic compound was used at a concentration of (a) CMC+0.04 wt % or (b) CMC+0.2 wt %, and the substrate binding properties of LeuT were measured using [^3H]-Leu via scintillation proximity assay (SPA). The measurement was performed at regular intervals over the course of a 13-day and 12-day incubation at room temperature, respectively.
Specifically, a wild-type leucine transporter (LeuT) derived from the thermophilic bacterium Aquifex aeolicus was purified by a previously described method (Nature 1998, 392, 353-358 by G. Deckert et al.). LeuT was expressed in E. coli C41 (DE3) transformed with pET16b encoding the C-terminal 8×His-tagged transporter (expression plasmids were provided from Dr E. Gouaux, Vollum Institute, Portland, Oregon, USA). In summary, after a bacterial membrane was isolated and solubilized in 1 wt % DDM, the protein was bound to Ni^2+-NTA resin (Life Technologies, Denmark), and eluted in 20 mM Tris-HCl (pH 8.0), 1 mM NaCl, 199 mM KCl, 0.05% (w/v) DDM and 300 mM imidazole. Then, the purified LeuT (0.5 mg/ml) was diluted with buffers supplemented with TSMs, TTGs, TEMs or DDM at a final concentration of CMC+0.04% (w/v) or CMC+0.2% (w/v) except for DDM and imidazole in the equivalent buffer described above. Protein samples were incubated at room temperature for 13 days, centrifuged at a specified time, and protein properties were confirmed by measuring [^3H]-Leucine binding ability using SPA. SPA was performed with 5 μL of each protein sample in a buffer containing 450 mM NaCl and each of TSMs and TEMs (or DDM). The SPA reaction was performed in the presence of 20 nM [^3H]-Leucine and 1.25 mg/ml copper chelate (His-Tag) YSi beads (PerkinElmer, Denmark). Overall [^3H]-Leucine coupling to each sample was measured using a MicroBeta liquid scintillation counter (Perkin Elmer).
A general note: SPA uses beads or plates that emit light when radiolabelled molecules are held near them.

In series [5] the target is human β2 adrenergic receptor (β2AR) (Homo sapiens, UniProt P07550). Put plainly: β2AR stability: [3H]-dihydroalprenolol (DHA) ligand binding assay. The following applies: CMC+0.2 wt %, room temperature, 6 days, [3H]-DHA. The procedure: Experiments were performed to measure the structural stability of the human β2 adrenergic receptor (β2AR) and G-protein-coupled receptor (GPCR) by TSMs, TTGs and TEMs. That is, a receptor purified by DDM was subjected to amphiphilic molecular exchange when diluted with a buffer solution containing only each of TSMs, TTGs and TEMs without cholesteryl hemisuccinate (CHS) or a buffer solution containing CHS and DDM. The final concentration of the amphiphilic molecule was CMC+0.2 wt %, and the ligand binding properties of the receptor were measured by binding of [^3H]-dihydroalprenolol ([^3H]-DHA). Specifically, the following method was used for a radioligand binding test. β2AR was purified using 0.1% DDM (D. M. Rosenbaum et al., Science, 2007, 318, 1266-1273.) and finally concentrated to about 10 mg/ml (about 200 μM). A master binding mixture containing 10 nM [^3H]-dihydroalprenolol (DHA) supplemented with 0.5 mg/ml BSA in 0.2% amphiphilic compounds (DDM, TSMs, TTGs or TEMs) was prepared using β2AR purified with DDM. Receptors purified with DDM, TSMs, TTGs or TEMs were incubated with 10 nM [^3H]-DHA at room temperature for 6 days. The mixture was loaded onto a G-50 column and a flow through was collected with 1 ml of a binding buffer (20 mM HEPES supplemented with 0.5 mg/ml BSA and 20×CMC each amphiphilic compound, pH 7.5, 100 mM NaCl), and filled with 15 ml of a scintillation fluid. Receptor-bound [^3H]-DHA was measured by a scintillation counter (Beckman). The binding of [^3H]-DHA is shown as a column graph.
Chain of human β2 adrenergic receptor (β2AR) (P07550 whole entry): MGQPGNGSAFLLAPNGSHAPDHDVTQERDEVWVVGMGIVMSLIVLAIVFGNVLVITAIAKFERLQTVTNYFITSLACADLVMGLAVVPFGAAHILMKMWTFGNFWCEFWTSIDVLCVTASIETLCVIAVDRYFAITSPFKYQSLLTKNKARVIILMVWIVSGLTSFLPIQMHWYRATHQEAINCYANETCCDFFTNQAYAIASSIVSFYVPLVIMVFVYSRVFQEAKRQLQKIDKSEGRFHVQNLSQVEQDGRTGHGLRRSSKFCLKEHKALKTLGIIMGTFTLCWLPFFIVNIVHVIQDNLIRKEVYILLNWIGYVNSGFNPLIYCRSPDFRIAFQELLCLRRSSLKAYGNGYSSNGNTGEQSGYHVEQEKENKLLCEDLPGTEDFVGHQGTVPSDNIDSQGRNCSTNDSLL

As to `CCCCCCCCCCSc1nc(SCCCCCCCCCC)nc(N(CCO[C@@H]2O[C@H](CO)[C@@H](O[C@H]3O[C@H](CO)[C@@H](O)[C@H](O)[C@H]3O)[C@H](O)[C@H]2O)CCO[C@@H]2O[C@H](CO)[C@@H](O[C@H]3O[C@H](CO)[C@@H](O)[C@H](O)[C@H]3O)[C@H](O)[C@H]2O)n1` [TEM-T10], the “CMC” value in series [1] is approximately 0.0025 mM. Also, the “Rh (nm)” value in series [2] is given as 4.3 ± 0.0 nm. Also, in series [3], the solubility is listed as approximately 5%. For the same compound, the “LeuT substrate binding properties over incubation” value in series [4] is “best substrate binding activity”.

Turning to `CCCCCCCCOc1nc(NC(CO[C@@H]2O[C@H](CO)[C@@H](O[C@H]3O[C@H](CO)[C@@H](O)[C@H](O)[C@H]3O)[C@H](O)[C@H]2O)CO[C@@H]2O[C@H](CO)[C@@H](O[C@H]3O[C@H](CO)[C@@H](O)[C@H](O)[C@H]3O)[C@H](O)[C@H]2O)nc(OCCCCCCCC)n1` [TSM-E8], the “CMC” value in series [1] is on record as approximately 0.02 mM. Also, the “Rh (nm)” value in series [2] came to 3.6 ± 0.1 nm. Further, the solubility in series [3] is recorded as approximately 10%. Besides, the “LeuT substrate binding properties over incubation” value in series [4] is on record as “best substrate binding activity”.

As to `CCCCCCCCCCCOc1nc(NC(CO[C@@H]2O[C@H](CO)[C@@H](O[C@H]3O[C@H](CO)[C@@H](O)[C@H](O)[C@H]3O)[C@H](O)[C@H]2O)CO[C@@H]2O[C@H](CO)[C@@H](O[C@H]3O[C@H](CO)[C@@H](O)[C@H](O)[C@H]3O)[C@H](O)[C@H]2O)nc(OCCCCCCCCCCC)n1` [TSM-E11], the “CMC” value in series [1] is reported as approximately 0.002 mM. The “Rh (nm)” value in series [2] stood at 56.2 ± 9.9 nm. In addition, in series [3], the solubility is approximately 1%. Besides, the “β2AR long-term ligand binding retention” value in series [5] is given as “better in maintaining the ligand binding ability of the receptor than DDM”.

`CCCCCCCSc1nc(NC(CO[C@@H]2O[C@H](CO)[C@@H](O[C@H]3O[C@H](CO)[C@@H](O)[C@H](O)[C@H]3O)[C@H](O)[C@H]2O)CO[C@@H]2O[C@H](CO)[C@@H](O[C@H]3O[C@H](CO)[C@@H](O)[C@H](O)[C@H]3O)[C@H](O)[C@H]2O)nc(SCCCCCCC)n1` [TSM-T7]: the “CMC” value in series [1] is approximately 0.01 mM. In addition, in series [2], the “Rh (nm)” value was 3.6 ± 0.1 nm. In series [3], this compound returned a solubility of approximately 10%. Further, in series [5], the “β2AR long-term ligand binding retention” value is recorded as “better in maintaining the ligand binding ability of the receptor than DDM”.

On to `CCCCCCCCSc1nc(NC(CO[C@@H]2O[C@H](CO)[C@@H](O[C@H]3O[C@H](CO)[C@@H](O)[C@H](O)[C@H]3O)[C@H](O)[C@H]2O)CO[C@@H]2O[C@H](CO)[C@@H](O[C@H]3O[C@H](CO)[C@@H](O)[C@H](O)[C@H]3O)[C@H](O)[C@H]2O)nc(SCCCCCCCC)n1` [TSM-T8], for which the “CMC” value in series [1] is recorded as approximately 0.006 mM. For the same compound, the “Rh (nm)” value in series [2] came to 4.2 ± 0.0 nm. This compound displayed a solubility in series [3] of approximately 10%. In series [5], the “β2AR long-term ligand binding retention” value is on record as “better in maintaining the ligand binding ability of the receptor than DDM”.

As for `CCCCCCCCCCSc1nc(NC(CO[C@@H]2O[C@H](CO)[C@@H](O[C@H]3O[C@H](CO)[C@@H](O)[C@H](O)[C@H]3O)[C@H](O)[C@H]2O)CO[C@@H]2O[C@H](CO)[C@@H](O[C@H]3O[C@H](CO)[C@@H](O)[C@H](O)[C@H]3O)[C@H](O)[C@H]2O)nc(SCCCCCCCCCC)n1` [TSM-T10], the “CMC” value in series [1] is approximately 0.003 mM. In addition, the “Rh (nm)” value in series [2] is reported as 38.2 ± 1.8 nm. This compound had a solubility in series [3] of approximately 5%. Moreover, in series [4], the “LeuT substrate binding properties over incubation” value is “best substrate binding activity”.

In the case of `CCCCCCCCCSc1nc(NC(CO[C@@H]2O[C@H](CO)[C@@H](O)[C@H](O)[C@H]2O)(CO[C@@H]2O[C@H](CO)[C@@H](O)[C@H](O)[C@H]2O)CO[C@@H]2O[C@H](CO)[C@@H](O)[C@H](O)[C@H]2O)nc(SCCCCCCCCC)n1` [TTG-T9], the “CMC” value in series [1] is on record as approximately 0.010 mM. Also, the “Rh (nm)” value in series [2] is given as 3.3 ± 0.11 nm. Also, in series [3], the solubility is reported as approximately 10%. Moreover, the “β2AR long-term ligand binding retention” value in series [5] is given as “better in maintaining the ligand binding ability of the receptor than DDM”.
